Values belong to the molecule of their own block, whether it stands above or below them.
Legend:
SCC9 (OSCC cell) = test: MTT cell viability assay (cytotoxicity), SCC9; type: cell-based, human; conditions: for IC50: Homo sapiens, SCC-9, SCC9, 48 h, MTT (Table 1), read-out: SCC9—Oral Cancer IC50; for SCC9 S.I.: IC50 normal oral fibroblasts / IC50 SCC9
Description: (§1) Cells and reagents. Human SCC-4, SCC-9, and SCC-25 cells, derived from a human oral tongue SCC (squamous cell carcinoma) were obtained from the ATCC (CRL-1624, CRL-1629, and CRL-1628, respectively) and maintained in 1:1 DMEM/F12 (Dulbecco’s modified Eagle medium and Ham’s F12 medium; Gibco (Thermo Fisher, Waltham, MA, USA)) supplemented with 10% (v/v) FBS (fetal bovine serum; Invitrogen, Thermo Fisher, Waltham, MA, USA) and 400 ng/mL hydrocortisone (Sigma-Aldrich Co., St. Louis, MO, USA). Primary normal human gingival fibroblasts were obtained from the ATCC (PCS-201-018) and maintained in DMEM supplemented with 10% (v/v) FBS and were used in a maximum of six passages. The cells were grown in a humidified environment containing 5% CO2 at 37 °C. […] Carboplatin stock was prepared in water (Fauldcarbo®; LibbsFarmacêutica, São Paulo, SP, Brazil) and was used as a standard anticancer compound.
(§2) Cell viability assay (cytotoxicity) and compound stability assay. The viability of SCC cell lines and primary human fibroblast cells was evaluated using the MTT assay as in [48]. Briefly, the cells were grown in triplicates in 96-well plates (5 × 10^3 cells/well) until confluence. Then, the medium was removed, fresh medium was added, and the cells were returned to the incubator in the presence of different compounds. DMSO at the same concentrations was used as a 100% cell viability control. After 48 h, the cells were incubated with 5 mg/mL MTT reagent (3-(4,5-dimethyl-2-thiazolyl)-2,5-diphenyl-2-H-tetrazolium bromide) (Sigma-Aldrich Co., St. Louis, MO, USA) for 3.5 h. After that, formazan crystals were dissolved in MTT solvent solution (DMSO/methanol 1:1 v/v) and the absorbance at 560 nm was evaluated using an EPOCH microplate spectrophotometer (BioTek Instruments, Winooski, VT, USA) with the background absorbance at 670 nm subtracted.
(§3) Statistical analysis, IC50 calculation. The data are presented as means ±\SD. IC50 values for the MTT assays were obtained by nonlinear regression using the […] 5.0 program (Intuitive Software for Science, San Diego, CA, USA) from at least three independent experiments. A dose–response (inhibitor) vs. response curve using the least squares method was used to determine the IC50, SD, and R^2 of the data. The selectivity index was calculated as SI = IC50 of the compound in normal oral fibroblast cells/IC50 of the same compound for each oral cancer cell line (SCC-4, SCC-9, and SCC-25) and the mean was calculated when indicated.

SCC25 OSCC cell line = test: MTT cell viability assay (cytotoxicity), SCC25; type: cell-based, human; conditions: for IC50: Homo sapiens, SCC-25, SCC25, 48 h, MTT, read-out: Oral Tumor Cells SCC25 IC50; for SCC25 S.I.: IC50 normal oral fibroblasts / IC50 SCC25
Description: as §1, §2, §3

[1] = MTT cell viability assay, normal fibroblasts; type: cell-based, human; conditions: human, primary normal human gingival fibroblasts (ATCC PCS-201-018)
Description: as §1, §2, §3

[2] = test system: Primary normal human gingival fibroblasts; test: MTT cell viability assay, normal fibroblasts; type: cell-based; conditions: Homo sapiens, Fibroblast; primary gingival fibroblasts, 48 h, MTT; read-out: Primary Gingival Fibroblast IC50
Description: as §1, §2, §3

SCC4 OSCC cell line = test: MTT cell viability assay (cytotoxicity), SCC4; type: cell-based, human; conditions: for IC50: Homo sapiens, SCC-4, SCC4, 48 h, MTT, read-out: Oral Tumor Cells SCC4 IC50; for SCC4 S.I.: IC50 normal oral fibroblasts / IC50 SCC4
Description: as §1, §2, §3

melting point: 250 to 251 °C
Structure (SMILES): COc1ccc(C2C3=C(CC(C)(C)CC3=O)NC3=C2C(=O)c2ccccc2C3=O)c(OC)c1 (stereo not drawn) [4j, 12-(2,4-dimethoxyphenyl)-3,3-dimethyl-3,4-dihydrobenzo[b]acridine-1,6,11(2H,5H,12H)-trione]
IC50 (SCC9 (OSCC cell)): 4.1 µM
SCC9 S.I. (SCC9 (OSCC cell)): 5.7
IC50 (SCC25 OSCC cell line): 11.5 µM
SCC25 S.I. (SCC25 OSCC cell line): 2.0
viability at 48 h [1]: > 75%
IC50 [2]: 23.6 µM
IC50 (SCC4 OSCC cell line): 18.9 µM
SCC4 S.I. (SCC4 OSCC cell line): 1.2

melting point: 242 to 243 °C
Structure (SMILES): COc1cc(C2C3=C(CC(C)(C)CC3=O)NC3=C2C(=O)c2ccccc2C3=O)cc(OC)c1OC (stereo not drawn) [4m, 12-(3,4,5-trimethoxyphenyl)-3,3-dimethyl-3,4-dihydrobenzo[b]acridine-1,6,11(2H,5H,12H)-trione]
IC50 (SCC9 (OSCC cell)): 2.06 µM
SCC9 S.I. (SCC9 (OSCC cell)): 3.8
IC50 (SCC25 OSCC cell line): 7.41 µM
SCC25 S.I. (SCC25 OSCC cell line): 1.1
viability at 48 h [1]: > 75%
IC50 [2]: 7.86 µM
IC50 (SCC4 OSCC cell line): 11 µM
SCC4 S.I. (SCC4 OSCC cell line): 0.7

Source: paper PMC9415509, “Pro-Apoptotic Antitumoral Effect of Novel Acridine-Core Naphthoquinone Compounds against Oral Squamous Cell Carcinoma” (Molecules, 2022)
